Data taken from patent publication US11339130B1 (Blade Therapeutics, Inc., priority 2016, dated 2022).
Read-outs that look alike come from different tables or passages of the source.

Experiments:
[1] = test system: Calpain activity in SH-SY5Y cells (SBDP-150); assay: SH-SY5Y Spectrin western blot assay (SBDP-150 breakdown product, A23187-induced); format: cell-based; settings: Homo sapiens, read-out: SH-SY5Y Spectrin IC50
[2] = test system: Calpain activity in SH-SY5Y cells; assay: SH-SY5Y + AMC fluorescence assay (Suc-LLVY-AMC substrate); format: cell-based
Human Calpain 9/NS1 = target: T1, Human Calpain 9/NS1 (Homo sapiens, UniProt O14815); assay: Calpain inhibition continuous fluorescence (FRET) assay, Human Calpain 9/NS1; format: biochemical; settings: Column C; read-out: Human Calpain 9/NS1 IC50
T1 sequence (O14815 1-690): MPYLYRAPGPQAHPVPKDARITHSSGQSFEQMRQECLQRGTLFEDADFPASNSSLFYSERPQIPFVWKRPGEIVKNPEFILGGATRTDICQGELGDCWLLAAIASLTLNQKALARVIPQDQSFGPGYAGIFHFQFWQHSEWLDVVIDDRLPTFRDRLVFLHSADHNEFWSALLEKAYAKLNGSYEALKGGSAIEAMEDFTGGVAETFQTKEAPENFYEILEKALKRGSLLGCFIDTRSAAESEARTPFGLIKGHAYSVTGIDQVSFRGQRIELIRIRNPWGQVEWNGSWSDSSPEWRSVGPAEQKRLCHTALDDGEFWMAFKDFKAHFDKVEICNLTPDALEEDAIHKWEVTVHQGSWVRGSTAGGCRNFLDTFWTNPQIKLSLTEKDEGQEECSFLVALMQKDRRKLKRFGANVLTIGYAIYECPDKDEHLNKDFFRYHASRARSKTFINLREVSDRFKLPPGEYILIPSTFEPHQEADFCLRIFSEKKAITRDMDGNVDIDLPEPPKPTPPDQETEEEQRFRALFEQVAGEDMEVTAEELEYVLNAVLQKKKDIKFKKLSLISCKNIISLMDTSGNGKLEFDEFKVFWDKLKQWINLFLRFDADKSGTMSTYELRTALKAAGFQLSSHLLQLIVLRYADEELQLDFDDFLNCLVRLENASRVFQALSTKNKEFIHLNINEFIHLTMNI
T1 sequence (P04632 1-268 partner): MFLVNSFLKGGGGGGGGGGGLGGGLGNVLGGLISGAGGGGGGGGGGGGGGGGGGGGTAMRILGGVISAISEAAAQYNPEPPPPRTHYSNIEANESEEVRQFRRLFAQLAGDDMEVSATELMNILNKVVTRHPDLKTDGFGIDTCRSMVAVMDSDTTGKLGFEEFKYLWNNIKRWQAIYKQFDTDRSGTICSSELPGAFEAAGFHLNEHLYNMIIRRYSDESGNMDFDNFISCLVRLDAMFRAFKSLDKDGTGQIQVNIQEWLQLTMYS
Outline: (§1)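 Buffer 50 mM Tris pH 7.5/100 mM NaCl/1 mM DTT; enzyme + cpd preinc 25C; start w/ FRET substrate + CaCl2; kinetic 490/520 nm, 10 min; slopes 1-5 min; 4-PL IC50.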

Human Calpain 2/NS1 = target: T2, Human Calpain 2/NS1 (Homo sapiens, UniProt P17655); assay: Calpain inhibition continuous fluorescence (FRET) assay, Human Calpain 2/NS1; format: biochemical; settings: Column B; read-out: Human Calpain 2/NS1 IC50
T2 sequence (P17655 1-700): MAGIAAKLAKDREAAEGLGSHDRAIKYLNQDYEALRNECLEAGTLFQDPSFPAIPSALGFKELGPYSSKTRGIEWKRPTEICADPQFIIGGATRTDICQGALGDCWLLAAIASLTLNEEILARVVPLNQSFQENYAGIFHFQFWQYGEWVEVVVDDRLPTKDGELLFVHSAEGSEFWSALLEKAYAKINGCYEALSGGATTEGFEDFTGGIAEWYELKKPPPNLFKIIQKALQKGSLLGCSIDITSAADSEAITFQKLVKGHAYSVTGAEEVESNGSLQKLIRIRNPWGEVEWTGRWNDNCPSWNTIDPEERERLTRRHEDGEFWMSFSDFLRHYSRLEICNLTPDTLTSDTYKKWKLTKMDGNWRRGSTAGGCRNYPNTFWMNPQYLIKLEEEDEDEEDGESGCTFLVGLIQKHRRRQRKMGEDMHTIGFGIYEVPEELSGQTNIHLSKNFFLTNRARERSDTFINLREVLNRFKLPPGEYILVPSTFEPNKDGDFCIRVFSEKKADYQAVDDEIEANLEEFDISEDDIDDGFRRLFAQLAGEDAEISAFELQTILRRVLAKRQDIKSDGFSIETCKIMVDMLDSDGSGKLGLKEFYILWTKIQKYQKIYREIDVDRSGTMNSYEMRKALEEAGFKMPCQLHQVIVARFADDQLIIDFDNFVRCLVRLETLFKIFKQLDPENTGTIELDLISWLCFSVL
T2 sequence (P04632 1-268 partner): T1 sequence (P04632 1-268 partner)
Outline: as §1

Human Calpain 1/NS1 = target: T3, Human Calpain 1/NS1 (Homo sapiens, UniProt P07384); assay: Calpain inhibition continuous fluorescence (FRET) assay, Human Calpain 1/NS1; format: biochemical; settings: Column A; read-out: Human Calpain 1/NS1 IC50
T3 sequence (P07384 1-714): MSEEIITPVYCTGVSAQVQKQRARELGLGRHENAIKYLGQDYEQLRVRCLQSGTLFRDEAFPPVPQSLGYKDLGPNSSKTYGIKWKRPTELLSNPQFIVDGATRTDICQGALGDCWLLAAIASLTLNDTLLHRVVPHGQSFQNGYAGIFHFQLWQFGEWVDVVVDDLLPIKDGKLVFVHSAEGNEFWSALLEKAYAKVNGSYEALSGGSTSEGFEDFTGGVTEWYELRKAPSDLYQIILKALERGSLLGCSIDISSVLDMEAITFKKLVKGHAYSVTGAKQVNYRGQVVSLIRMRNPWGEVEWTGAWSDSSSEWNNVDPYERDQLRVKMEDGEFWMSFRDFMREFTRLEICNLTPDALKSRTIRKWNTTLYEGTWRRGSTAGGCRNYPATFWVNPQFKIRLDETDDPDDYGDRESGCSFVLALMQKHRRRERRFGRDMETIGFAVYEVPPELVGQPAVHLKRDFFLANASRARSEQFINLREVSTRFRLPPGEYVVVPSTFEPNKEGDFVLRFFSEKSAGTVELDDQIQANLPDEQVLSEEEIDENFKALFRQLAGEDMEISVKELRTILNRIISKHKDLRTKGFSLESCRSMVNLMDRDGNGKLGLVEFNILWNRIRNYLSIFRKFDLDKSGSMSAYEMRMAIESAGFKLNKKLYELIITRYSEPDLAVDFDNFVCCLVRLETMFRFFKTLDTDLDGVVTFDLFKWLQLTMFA
T3 sequence (P04632 1-268 partner): T1 sequence (P04632 1-268 partner)
Outline: as §1

[3] = Column D, SH-SY5Y cells, A23187-induced SBDP-150
[4] = Column E, read-out: SH-SY5Y + AMC IC50

IC50 [1, 3]	IC50 [2, 4]	IC50 (Human Calpain 9/NS1)	IC50 (Human Calpain 2/NS1)	IC50 (Human Calpain 1/NS1)	Structure (SMILES)	IC50 ([1]; SH-SY5Y)	IC50 ([2]; read-out: SH-SY5Y + AMC IC50, Column E)
< 10 µM	> 25 µM	< 3 µM	< 3 µM	< 3 µM	Cc1cc(C(=O)N[C@@H](Cc2ccccc2)C(=O)C(N)=O)n(-c2ccc(-c3cccc(F)c3)cc2)n1 [Compound 216, (S)—N-(4-amino-3,4-dioxo-1-phenylbutan-2-yl)-1-(3′-fluoro-[1,1′-biphenyl]-4-yl)-3-methyl-1H-pyrazole-5-carboxamide]		
< 10 µM	> 25 µM	< 3 µM	< 3 µM	< 3 µM	Cc1cc(C(=O)N[C@@H](Cc2ccccc2)C(=O)C(N)=O)n(-c2ccc(-c3ccccc3F)cc2)n1 [Compound 217, (S)—N-(4-amino-3,4-dioxo-1-phenylbutan-2-yl)-1-(2′-fluoro-[1,1′-biphenyl]-4-yl)-3-methyl-1 h-pyrazole-5-carboxamide]		
10 to 25 µM	> 25 µM	< 3 µM	< 3 µM	< 3 µM	Cc1cccc(-c2ccc(-n3nc(C)cc3C(=O)N[C@@H](Cc3ccccc3)C(=O)C(N)=O)cc2)c1 [Compound 218, (S)—N-(4-amino-3,4-dioxo-1-phenylbutan-2-yl)-3-methyl-1-(3′-methyl-[1,1′-biphenyl]-4-yl)-1H-pyrazole-5-carboxamide]		
10 to 25 µM	> 25 µM	< 3 µM	< 3 µM	< 3 µM	Cc1cc(C(=O)N[C@@H](Cc2ccccc2)C(=O)C(N)=O)c(-c2ccccc2)s1 [Compound 222, (S)—N-(4-amino-3,4-dioxo-1-phenylbutan-2-yl)-5-methyl-2-phenylthiophene-3-carboxamide]		
10 to 25 µM	> 25 µM	< 3 µM	< 3 µM	< 3 µM	Cc1cnn(-c2ccccc2)c1C(=O)N[C@@H](Cc1ccccc1)C(=O)C(N)=O [Compound 223, (S)—N-(4-amino-3,4-dioxo-1-phenylbutan-2-yl)-4-methyl-1-phenyl-1H-pyrazole-5-carboxamide]		
< 10 µM	< 10 µM	< 3 µM	< 3 µM	< 3 µM	CCc1nc(-c2ccccc2)c(C(=O)N[C@@H](Cc2ccccc2)C(=O)C(N)=O)o1 [Compound 226, (S)—N-(4-amino-3,4-dioxo-1-phenylbutan-2-yl)-2-ethyl-4-phenyloxazole-5-carboxamide]		
< 10 µM	> 25 µM	< 3 µM	< 3 µM	< 3 µM	CCOCc1ccc(-n2nc(C)cc2C(=O)N[C@@H](Cc2ccccc2)C(=O)C(N)=O)cc1 [Compound 227, (S)—N-(4-amino-3,4-dioxo-1-phenylbutan-2-yl)-1-(4-(ethoxymethyl)phenyl)-3-methyl-1H-pyrazole-5-carboxamide]		

More lines, now with the values behind:

Structure (SMILES)	IC50 [1, 3]	IC50 [2, 4]	IC50 (Human Calpain 9/NS1)	IC50 (Human Calpain 2/NS1)	IC50 (Human Calpain 1/NS1)	IC50 ([1]; SH-SY5Y)	IC50 ([2]; read-out: SH-SY5Y + AMC IC50, Column E)
Cn1cc(C(=O)N[C@@H](Cc2ccccc2)C(=O)C(N)=O)c(-c2cccc(Cl)c2)n1 [Compound 187, (S)—N-(4-amino-3,4-dioxo-1-phenylbutan-2-yl)-3-(3-chlorophenyl)-1-methyl-1H-pyrazole-4-carboxamide]	10 to 25 µM	> 25 µM	< 3 µM	< 3 µM	< 3 µM		
Cn1cc(C(=O)N[C@@H](Cc2ccccc2)C(=O)C(N)=O)c(-c2cccnc2)n1 [Compound 188, (S)—N-(4-amino-3,4-dioxo-1-phenylbutan-2-yl)-1-methyl-3-(pyridin-3-yl)-1H-pyrazole-4-carboxamide]	10 to 25 µM	> 25 µM	< 3 µM	< 3 µM	< 3 µM		
Cn1cc(C(=O)NC(Cc2ccccc2)C(=O)C(N)=O)c(-c2cccc(C(F)(F)F)n2)n1 (stereo not drawn) [Compound 198, N-(4-amino-3,4-dioxo-1-phenylbutan-2-yl)-1-methyl-3-(6-(trifluoromethyl)pyridin-2-yl)-1H-pyrazole-4-carboxamide]			< 3 µM	< 3 µM	< 3 µM	> 25 µM	> 25 µM
NC(=O)C(=O)[C@H](Cc1ccccc1)NC(=O)c1cncn1-c1ccc(-c2ccccc2)nn1 [Compound 200, (S)—N-(4-amino-3,4-dioxo-1-phenylbutan-2-yl)-1-(6-phenylpyridazin-3-yl)-1H-imidazole-5-carboxamide]	10 to 25 µM	> 25 µM	< 3 µM	< 3 µM	< 3 µM		
Cc1cc(C(=O)N[C@@H](Cc2ccccc2)C(=O)C(N)=O)n(-c2ccc(-c3ccccc3C)cc2)n1 [Compound 202, (S)—N-(4-amino-3,4-dioxo-1-phenylbutan-2-yl)-3-methyl-1-(2′-methyl-[1,1′-biphenyl]-4-yl)-1H-pyrazole-5-carboxamide]	10 to 25 µM	> 25 µM	< 3 µM	< 3 µM	< 3 µM		
NC(=O)C(=O)[C@H](Cc1ccccc1)NC(=O)c1sc(C2CC2)nc1-c1ccccc1 [Compound 207, (S)—N-(4-amino-3,4-dioxo-1-phenylbutan-2-yl)-2-cyclopropyl-4-phenylthiazole-5-carboxamide]	10 to 25 µM	< 10 µM	< 3 µM	< 3 µM	< 3 µM		
Cc1cc(C(=O)N[C@@H](Cc2ccccc2)C(=O)C(N)=O)n(-c2ccc(C#N)cn2)n1 [Compound 208]	< 10 µM	> 25 µM	< 3 µM	< 3 µM	< 3 µM		
Cc1cc(C(=O)N[C@@H](Cc2ccccc2)C(=O)C(N)=O)n(-c2ncc(-c3ccccc3)o2)n1 [Compound 212, (S)—N-(4-amino-3,4-dioxo-1-phenylbutan-2-yl)-3-methyl-1-(5-phenyloxazol-2-yl)-1H-pyrazole-5-carboxamide]	10 to 25 µM	< 10 µM	< 3 µM	< 3 µM	< 3 µM		
